Source: US20150359866A1, “TREATMENT OF CERVICAL AND RELATED […] TOPICAL IMMUNOMODULATORS” (THE JOHNS HOPKINS UNIVERSITY, priority 2014, published 2015)

System: CIN2/3 lesions associated with HPV genotypes other than HPV16
Assay: Clinical trial of topical imiquimod on CIN 2/3 lesions (lesion regression)
Type: in vivo, human
From the text: Treatment protocol. In an embodiment, patients are screened at their initial colposcopic evaluation for referral for evaluation of high grade pap smears. Immunocomptetent patients with biopsy-confirmed CIN2/3 which is HPV16 negative will be eligible for enrollment. Both treatment and control groups will be assessed for histologic diagnosis at week 15, change in cervical quantitative HPV viral load, safety, toxicity, tolerability, and for measures of local mucosal immune responses. Patients will be given imiquimod (5%) or vehicle at Day 0, week 4, and week 8 and then histological diagnosis is determined at week 15.
Imiquimod administration on the lesion at each vaccination. In an embodiment, patients received a total of three applications of imiquimod directly on the cervical lesion, one application at the time of each vaccination. One single use packet containing 250 mg of 5% imiquimod was used for each treatment. After insertion of a vaginal speculum, the cream is applied directly to the lesion by the PI, using a cotton-tipped applicator. The speculum is withdrawn, and a tampon is placed as a medication barrier. Patients will be instructed to leave the tampon in place for about 4 to 6, and no more than 10 hours. […]
Clinical trial results. […] Subjects were monitored for mucosal irritation. […]

CC(C)Cn1cnc2c(N)nc3ccccc3c21 [imiquimod, 1-(2-methylpropyl)-1H-imidazo[4,5-c]quinolin-4-amine]
rate of regression relative to untreated HPV16-negative CIN2/3 patients (FIG. 4, untreated rate in same timeframe 30-40%): nearly double | rate of regression of CIN2/3 lesions (HPV16-negative subjects, 12.5 mg imiquimod in 250 mg cream applied to the cervical lesion three times at four-week intervals, assessed eight weeks after third application, 10/16 subjects): 62.5%
